Test results: ChEMBL document CHEMBL1201862, “PubChem BioAssay data set” (2004)
One block for each compound: values may come before it. The source made the active and inactive calls. Unless noted, the rule behind the calls is not given here.

Experiments:
[1] = biological target: Potassium voltage-gated channel subfamily KQT member 2 (Rattus norvegicus, UniProt O88943); assay: Mode of action assay-Dose response assay for compounds that activate KCNQ2 potassium channels on automated patch clamp. [Related pubchem assays (depositor defined):AID2239, AID2258, AID2287, AID493113]; assay type: functional
[2] = biological target: T1, Potassium voltage-gated channel subfamily KQT member 4 (Homo sapiens, UniProt P56696); assay: human KCNQ4 channel current potentiation, dose response, selectivity assay for KCNQ2 activator project, automated patch clamp, CHO cells (AID 493043); assay type: functional, cell-based
[3] = biological target: Potassium voltage-gated channel subfamily KQT member 2/member 3 (Rattus norvegicus, UniProt O88943+O88944); assay: Mode of action assay-Dose response assay for KCNQ2 activators in the KCNQ2/KCNQ3 co-expressing cells on automated patch clamp. [Related pubchem assays (depositor defined):AID2239, AID2258, AID2287]; assay type: functional
[4] = biological target: T1, Potassium voltage-gated channel subfamily KQT member 4; assay: KCNQ4 channel modulation, potentiation or inhibition, dose response, selectivity assay for KCNQ2 activator project, thallium flux, KCNQ4-expressing cells (AID 504416); assay type: functional, cell-based
[5] = biological target: T2, Hexokinase-1 (Homo sapiens, UniProt P19367); assay: SAR analysis of small molecule inhibitors of hexokinase domain containing I (HKDC1) in the hexokinase 1 selectivity assay. [Related pubchem assays (depositor defined):AID493160, AID493190]; assay type: functional
T2 sequence (P19367 whole entry): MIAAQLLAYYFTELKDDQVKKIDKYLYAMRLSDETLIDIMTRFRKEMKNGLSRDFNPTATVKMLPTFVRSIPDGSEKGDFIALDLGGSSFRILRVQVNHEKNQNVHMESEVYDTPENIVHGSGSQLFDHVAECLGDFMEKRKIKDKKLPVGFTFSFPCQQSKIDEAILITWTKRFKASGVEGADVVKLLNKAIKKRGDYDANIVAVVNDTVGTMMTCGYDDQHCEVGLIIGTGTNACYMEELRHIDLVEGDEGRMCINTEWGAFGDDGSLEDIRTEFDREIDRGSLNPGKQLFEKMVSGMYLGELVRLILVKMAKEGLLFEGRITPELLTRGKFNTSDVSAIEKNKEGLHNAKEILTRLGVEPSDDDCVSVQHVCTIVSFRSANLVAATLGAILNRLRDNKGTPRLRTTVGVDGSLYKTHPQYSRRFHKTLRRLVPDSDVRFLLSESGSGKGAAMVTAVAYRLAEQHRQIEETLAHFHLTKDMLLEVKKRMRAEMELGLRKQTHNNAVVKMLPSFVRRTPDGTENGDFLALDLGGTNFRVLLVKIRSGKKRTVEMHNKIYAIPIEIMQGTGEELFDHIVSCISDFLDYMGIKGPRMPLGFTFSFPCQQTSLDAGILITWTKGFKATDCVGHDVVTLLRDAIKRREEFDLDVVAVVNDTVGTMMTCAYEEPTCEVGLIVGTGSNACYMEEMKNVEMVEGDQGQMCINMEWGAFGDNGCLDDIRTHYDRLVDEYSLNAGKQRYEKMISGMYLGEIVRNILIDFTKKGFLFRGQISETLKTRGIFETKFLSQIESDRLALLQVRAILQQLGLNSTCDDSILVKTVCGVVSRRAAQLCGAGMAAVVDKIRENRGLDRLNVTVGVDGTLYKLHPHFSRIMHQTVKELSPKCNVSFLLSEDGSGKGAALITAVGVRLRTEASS

[6] = biological target: T3, Hexokinase HKDC1 (Homo sapiens, UniProt Q2TB90); assay: SAR analysis of small molecule inhibitors of hexokinase domain containing I (HKDC1). [Related pubchem assays (depositor defined):AID493160, AID493190]; assay type: functional
T3 sequence (Q2TB90 whole entry): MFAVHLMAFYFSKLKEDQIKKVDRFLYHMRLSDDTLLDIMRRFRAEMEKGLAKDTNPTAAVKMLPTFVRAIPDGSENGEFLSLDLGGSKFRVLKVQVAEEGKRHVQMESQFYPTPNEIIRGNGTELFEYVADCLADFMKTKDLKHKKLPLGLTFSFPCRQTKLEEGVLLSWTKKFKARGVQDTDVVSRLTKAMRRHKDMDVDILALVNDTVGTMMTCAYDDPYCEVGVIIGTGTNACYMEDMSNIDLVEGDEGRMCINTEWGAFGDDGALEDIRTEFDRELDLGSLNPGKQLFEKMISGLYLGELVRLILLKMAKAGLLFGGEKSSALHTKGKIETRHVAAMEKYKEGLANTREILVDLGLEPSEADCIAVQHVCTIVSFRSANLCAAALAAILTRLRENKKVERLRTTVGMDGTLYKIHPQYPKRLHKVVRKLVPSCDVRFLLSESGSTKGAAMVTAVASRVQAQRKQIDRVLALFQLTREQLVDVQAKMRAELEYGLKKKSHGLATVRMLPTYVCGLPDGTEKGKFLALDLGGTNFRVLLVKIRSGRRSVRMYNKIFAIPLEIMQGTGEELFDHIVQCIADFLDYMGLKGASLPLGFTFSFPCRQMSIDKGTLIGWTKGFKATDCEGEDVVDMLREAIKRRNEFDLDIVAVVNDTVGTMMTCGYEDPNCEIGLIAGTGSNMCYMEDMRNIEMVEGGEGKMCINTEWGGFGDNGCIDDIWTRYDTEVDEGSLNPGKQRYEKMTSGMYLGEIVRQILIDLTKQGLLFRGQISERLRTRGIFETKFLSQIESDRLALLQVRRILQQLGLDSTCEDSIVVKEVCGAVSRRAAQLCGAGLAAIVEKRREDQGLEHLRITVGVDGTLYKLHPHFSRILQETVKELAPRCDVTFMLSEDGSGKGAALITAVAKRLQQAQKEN

[7] = system: HeLa; assay: HeLa cell cytotoxicity, dose response, cytotoxicity control for MITF activator project, CellTiter-Glo luminescence, cherry-pick samples (AID 540259); assay type: functional, cell-based; details: Homo sapiens
[8] = Luminescence Cell-Based Dose Retest to Confirm Inhibitors of Cancer Stem Cells. [Related pubchem assays (depositor defined):AID2717, AID2721]; assay type: functional; details: Homo sapiens
[9] = cytotoxicity in HMLE control line with eGFP shRNA, dose response, counter-screen for HMLE_sh_ECad selective toxicity project, cell-based, HMLE_sh_eGFP, luminescence (AID 463074); assay type: functional, Homo sapiens;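 also: HMLE human mammary epithelial cells expressing control shRNA against eGFP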
[10] = system: H9c2; assay: cells; assay type: functional, cell-based; details: Rattus norvegicus, H9c2, Myocardium;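 also: confirmatory concentration-response retest of ultra-high-throughput screening hits for modulation of myocardial damage; cell death induced by hydrogen peroxide oxidative stress; compound pretreatment for 60 min then peroxide exposure for 2 h; potency is for protecting the cells against peroxide damage rather than for killing them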
[11] = biological target: Beta-2 adrenergic receptor (Homo sapiens, UniProt P07550); assay: beta2AR agonists driving receptor internalization, dose response, cell-based, FAP fluorogen, flow cytometry, cherry pick 1 (AID 588763); assay type: functional
[12] = biological target: Beta-arrestin-1 (Homo sapiens, UniProt P49407); assay: inhibitors of arrestin peptide binding to AP2, dose response, biochemical, cherry pick 1, beta2-adaptin appendage, flow cytometry (AID 588783); assay type: functional
Beta-arrestin-1, sequence (P49407 whole entry): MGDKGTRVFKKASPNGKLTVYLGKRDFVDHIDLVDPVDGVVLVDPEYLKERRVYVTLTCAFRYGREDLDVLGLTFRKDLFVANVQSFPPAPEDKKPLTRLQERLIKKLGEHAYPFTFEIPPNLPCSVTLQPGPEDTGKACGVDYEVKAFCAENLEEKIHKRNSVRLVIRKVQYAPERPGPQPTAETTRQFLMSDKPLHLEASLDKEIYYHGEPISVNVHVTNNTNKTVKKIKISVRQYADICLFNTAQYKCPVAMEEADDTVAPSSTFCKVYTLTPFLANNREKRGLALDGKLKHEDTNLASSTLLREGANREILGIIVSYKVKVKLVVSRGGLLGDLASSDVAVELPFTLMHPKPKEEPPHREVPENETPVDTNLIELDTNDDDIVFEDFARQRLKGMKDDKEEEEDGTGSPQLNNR

T1 sequence (P56696 whole entry): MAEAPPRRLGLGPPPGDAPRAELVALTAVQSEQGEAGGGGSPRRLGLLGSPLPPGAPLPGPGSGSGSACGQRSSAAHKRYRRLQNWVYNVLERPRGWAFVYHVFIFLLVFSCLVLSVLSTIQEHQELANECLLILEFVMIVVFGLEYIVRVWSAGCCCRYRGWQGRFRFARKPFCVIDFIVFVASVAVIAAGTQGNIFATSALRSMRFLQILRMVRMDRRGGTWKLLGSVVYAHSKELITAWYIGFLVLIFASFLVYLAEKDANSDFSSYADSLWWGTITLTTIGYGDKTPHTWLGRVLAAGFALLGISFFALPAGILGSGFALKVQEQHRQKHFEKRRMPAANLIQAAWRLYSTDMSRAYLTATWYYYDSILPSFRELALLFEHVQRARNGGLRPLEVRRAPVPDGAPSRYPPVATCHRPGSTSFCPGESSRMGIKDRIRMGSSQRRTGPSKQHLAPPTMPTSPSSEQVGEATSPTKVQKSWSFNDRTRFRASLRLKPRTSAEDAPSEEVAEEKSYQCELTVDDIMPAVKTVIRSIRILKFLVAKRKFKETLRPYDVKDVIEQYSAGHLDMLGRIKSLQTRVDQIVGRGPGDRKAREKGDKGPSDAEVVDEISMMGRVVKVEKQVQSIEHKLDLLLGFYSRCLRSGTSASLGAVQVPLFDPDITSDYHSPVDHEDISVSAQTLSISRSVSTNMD
Beta-2 adrenergic receptor, sequence (P07550 whole entry): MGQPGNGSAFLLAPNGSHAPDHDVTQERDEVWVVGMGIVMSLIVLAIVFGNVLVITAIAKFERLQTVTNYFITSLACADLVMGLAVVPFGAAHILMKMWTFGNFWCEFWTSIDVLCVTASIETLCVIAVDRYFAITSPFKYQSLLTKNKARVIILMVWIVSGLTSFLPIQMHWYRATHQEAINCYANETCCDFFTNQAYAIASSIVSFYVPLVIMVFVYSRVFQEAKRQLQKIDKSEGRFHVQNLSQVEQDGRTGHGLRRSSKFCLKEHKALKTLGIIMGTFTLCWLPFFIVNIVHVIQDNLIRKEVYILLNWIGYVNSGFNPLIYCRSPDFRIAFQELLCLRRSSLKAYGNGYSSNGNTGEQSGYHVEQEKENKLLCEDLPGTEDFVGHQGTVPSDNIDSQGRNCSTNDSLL
Potassium voltage-gated channel subfamily KQT member 2/member 3, sequence (O88943 whole entry): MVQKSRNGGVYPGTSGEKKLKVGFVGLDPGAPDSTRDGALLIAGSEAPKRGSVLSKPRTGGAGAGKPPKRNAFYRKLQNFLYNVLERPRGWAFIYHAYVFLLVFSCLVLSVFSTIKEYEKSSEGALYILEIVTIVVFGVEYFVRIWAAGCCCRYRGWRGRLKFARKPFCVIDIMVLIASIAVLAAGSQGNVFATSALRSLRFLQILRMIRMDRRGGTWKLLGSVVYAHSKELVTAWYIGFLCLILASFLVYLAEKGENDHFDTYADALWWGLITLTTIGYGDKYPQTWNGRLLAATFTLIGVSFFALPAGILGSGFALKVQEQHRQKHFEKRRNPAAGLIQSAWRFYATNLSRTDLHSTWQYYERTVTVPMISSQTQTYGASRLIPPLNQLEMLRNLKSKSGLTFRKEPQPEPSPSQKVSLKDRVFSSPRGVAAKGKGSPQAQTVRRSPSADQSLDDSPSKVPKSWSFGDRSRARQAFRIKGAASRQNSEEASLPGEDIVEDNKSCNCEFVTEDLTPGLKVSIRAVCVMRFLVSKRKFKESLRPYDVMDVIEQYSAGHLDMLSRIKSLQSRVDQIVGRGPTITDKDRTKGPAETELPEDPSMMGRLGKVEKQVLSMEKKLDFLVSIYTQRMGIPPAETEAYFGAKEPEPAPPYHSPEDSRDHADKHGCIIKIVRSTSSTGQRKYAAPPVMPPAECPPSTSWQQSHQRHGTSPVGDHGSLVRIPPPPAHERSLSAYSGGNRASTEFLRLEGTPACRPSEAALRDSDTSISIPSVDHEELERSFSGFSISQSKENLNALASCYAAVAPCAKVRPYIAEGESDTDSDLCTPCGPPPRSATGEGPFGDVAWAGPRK
Potassium voltage-gated channel subfamily KQT member 2/member 3, sequence (O88944 whole entry): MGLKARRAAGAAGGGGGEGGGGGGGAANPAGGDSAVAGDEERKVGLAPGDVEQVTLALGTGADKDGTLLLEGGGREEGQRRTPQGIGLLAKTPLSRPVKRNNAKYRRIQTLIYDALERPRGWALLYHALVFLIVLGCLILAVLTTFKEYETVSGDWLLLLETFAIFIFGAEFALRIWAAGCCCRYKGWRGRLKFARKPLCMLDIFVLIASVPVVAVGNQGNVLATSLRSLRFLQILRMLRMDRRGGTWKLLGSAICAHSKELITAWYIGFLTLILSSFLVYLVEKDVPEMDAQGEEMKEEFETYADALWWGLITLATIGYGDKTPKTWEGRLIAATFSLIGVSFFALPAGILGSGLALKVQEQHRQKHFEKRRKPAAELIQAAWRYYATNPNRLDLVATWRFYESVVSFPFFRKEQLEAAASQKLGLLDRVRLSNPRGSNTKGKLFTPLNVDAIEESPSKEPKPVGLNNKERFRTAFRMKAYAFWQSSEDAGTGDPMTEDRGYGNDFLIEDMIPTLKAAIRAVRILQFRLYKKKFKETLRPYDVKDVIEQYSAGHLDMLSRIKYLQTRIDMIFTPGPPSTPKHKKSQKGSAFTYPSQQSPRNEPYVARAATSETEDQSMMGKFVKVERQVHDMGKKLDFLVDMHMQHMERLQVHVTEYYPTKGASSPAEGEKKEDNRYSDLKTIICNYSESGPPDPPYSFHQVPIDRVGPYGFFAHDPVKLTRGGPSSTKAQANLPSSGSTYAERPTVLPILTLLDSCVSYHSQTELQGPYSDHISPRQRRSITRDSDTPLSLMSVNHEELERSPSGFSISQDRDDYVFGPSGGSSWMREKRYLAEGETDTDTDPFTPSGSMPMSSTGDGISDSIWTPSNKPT
Potassium voltage-gated channel subfamily KQT member 2, sequence (O88943 whole entry): as the sequence (O88943 whole entry) above

EC50 [1]: 0.867 µM (active)
EC50 [2]: 15.3 µM (active)
EC50 [3]: 0.625 µM (active)
EC50 [4]: 8.78 µM (active)
SMILES: Cc1cc(C)c(NC(=O)CC(C)(C)C)c(Cl)c1

IC50 [5]: > 80 µM (inactive)
IC50 [6]: > 80 µM (inactive)
SMILES: O=c1c2ccccc2nc(/C=C/c2cccnc2)n1Cc1cccc(F)c1

IC50 [12]: 15.3 µM (inactive)
SMILES: Cc1ccc(C2Nc3cccc4cccc(c34)N2)s1

The next lines start with the compound.

SMILES: O=C(c1cccs1)N1CCn2c1nc1ccccc12
AC50 [7]: 115 µM (active)

SMILES: O=C(CSc1nc(-c2ccco2)cc(C(F)(F)F)n1)Nc1ccccc1C(F)(F)F
AC50 [8]: 5.71 µM (active)
AC50 [9]: 23.1 µM (active)

SMILES: CC(=O)Nc1ccc(S(=O)(=O)N(Cc2ccco2)Cc2cc3ccccc3nc2O)cc1
IC50 [10]: > 79 µM (inactive)
EC50 [11]: 0.00464 µM (active)
